Measurements taken from patent US20220273678A1 (priority 2020, published 2022).
“Also recorded” adds a separate entry of the source. Where two headings read alike, the source gives them in different places.

How the values were obtained:
[1] = up to 80 mg orally daily, up to one year; methanesulfonate; cited from earlier work
cleaved caspase 3 = format: cell-based, African green monkey; conditions: Vero, methanesulfonate
MAVS, TOM70, STING, MX1 = test: MAVS, TOM70, STING and MX1 protein levels in Calu3 cells, flow cytometry and immunofluorescence; format: cell-based, human
SARS-CoV-2 [2] = test: Post-exposure prophylaxis in two parents of a household exposed to SARS-CoV-2; format: in vivo, human
From the text: FIG. 8-a show the timeline of exposure, symptoms and diagnostic tests in household. Two parents [[…], A1 with history of chronic myelogenous leukemia (CML) and healthy parent 39 years, A2] were notified on Dec. 5, 2020 [defined as day 5 (D5)], that the schoolteacher (T1) of their child (C1) tested positive for SARS-CoV-2 and developed symptoms of Covid-19. C1 had 6-h exposure to T1 on November 30 (with masks) (D0). The family had no other exposure to any other person between November 20-30 (D-10 to D0) given Thanksgiving Day on November 26 (D-4). Several children and parents from the same school class were infected with Covid-19 within the first 2 weeks of December. C1 developed fever (100.4° F.; 38° C.) and fatigue 2.5 days after exposure (D0) that lasted 3 days (D2-D5) and remained asymptomatic since then. The second child (C2) was asymptomatic until D12 when they developed fever (100.4° F.; 38° C.), fatigue and coryza on D12-D14. A1 and A2 started Mito-MES on D4. […]
One important consideration with COVID-19 testing is that it is often unclear how exactly the NP swab was obtained (by healthcare worker or not and whether the posterior or anterior nasopharynx were assessed). […]

[3] = tested on: SARS-CoV-2 wild type (WT); test: Lung inflammation in K18-hACE2 mice infected with SARS-CoV-2 wild type (cohort A, 3 dpi); format: in vivo
SARS-CoV-2 [4] = test: microbe, parasite or virus in culture; format: cell-based
[5] = tested on: murine coronavirus hepatitis virus A-59 (MHV-A59); test: Mouse hepatitis virus A-59 in 17Cl-1 fibroblast cells; format: cell-based; conditions: mouse 17C1-1 fibroblast cells, 1000 nM
[6] = tested on: IL-6, IL-1β, IL-8, IL-10, TNF-α; format: cell-based, human
Vero cells = test: XTT cell cytotoxicity assay in uninfected Vero cells; format: cell-based, African green monkey; conditions: uninfected cultures, 10-1000 nM
Protocol: To measure cell viability to determine if there was any treatment-induced cytotoxicity, cells were plated and treated with drugs as described above. Cells were exposed to the same dilution series created for the in vitro efficacy studies. As above, vehicle-treated cells served as the 0% cytotoxicity control. After 24 h, cell viability was measured on a Synergy 2 Biotek microplate reader (Biotek Inc) via the XTT Cell Proliferation Assay Kit (ATCC® 30-1011K™) according to the manufacturer's protocol. Similar data were obtained in three independent experiments.

SARS-CoV-2 [7] = test: K18-hACE2 mice infected with SARS-CoV-2 (wild type), lung viral titer and viral protein; format: in vivo

COC1=C(OC)C(=O)C(CCCCCCCCCC[P+](c2ccccc2)(c2ccccc2)c2ccccc2)=C(C)C1=O.CS(=O)(=O)[O-] [Mito-MES, 10-(4,5-dimethoxy-2-methyl-3,6-dioxo-1,4-cyclohexadienyl) decyl triphenylphosphonium methanesulfonate]
safety in humans [1]: safety for up to one year in doses as high as 80 mg orally daily has been validated; also recorded: without any serious adverse events | SARS-CoV-2-induced cleavage of caspase 3, immunofluorescence (cleaved caspase 3; Mito-MES 10-1000 nM): reduced SARS-CoV-2-induced increase in cleavage of caspase 3; also recorded: reduced by Mito-MES treatment | percent of infected cells positive for cleaved caspase 3 and MFI of cleaved caspase 3 per cell, flow cytometry (cleaved caspase 3; Mito-MES 100 nM, 4F 10 μM): attenuated SARS-CoV-2-induced increase; also recorded: inhibits or reduces SARS-CoV-2-induced increase | MX1 protein levels (MAVS, TOM70, STING, MX1; Calu3, flow cytometry, 4F 10 μM): increased MX1 protein levels | STING protein levels (MAVS, TOM70, STING, MX1; infected Calu3, flow cytometry, methanesulfonate): did not impact stimulator of interferon genes (STING) | TOM70 protein levels, immunofluorescence (MAVS, TOM70, STING, MX1; infected Calu3 vs vehicle, methanesulfonate): confirmed by immunofluorescence; also recorded: dose-dependent increase in TOM70 protein levels | MAVS protein levels (MAVS, TOM70, STING, MX1; total and infected Calu3, flow cytometry, methanesulfonate): no impact; also recorded: did not modulate MAVS protein levels | TOM70 protein levels, flow cytometry (MAVS, TOM70, STING, MX1; total and infected Calu3, methanesulfonate): increased the translocase of the outer membrane 70 (TOM70) protein levels | plasma IgG to SARS-CoV-2 S1 protein (SARS-CoV-2 [2]; each parent, three timepoints over 5 weeks): undetectable levels | symptoms and virological / serological confirmation of infection (SARS-CoV-2 [2]; two parents, 20 mg/day oral Mito-MES from D4, 6 weeks): remained asymptomatic and without virological and serological confirmation of infection | reduction in IL-6 in the lungs, Luminex ([3]; 4 mg/kg i.p. daily, 3 dpi): at least 2 orders of magnitude | reduction in IL-lb in the lungs, Luminex ([3]; 4 mg/kg i.p. daily, 3 dpi): at least 2 orders of magnitude | frequency of CD45+ immune cells in lungs, flow cytometry ([3]; 3 dpi): reduced frequency of CD45+ immune | frequency of NK cells in lungs ([3]; 3 dpi): reduced frequency of NK cells | levels of TNFa ([3]; WT SARS-CoV-2): did not change | protein levels of IL-18 ([3]; cohort A and cohort B): did not change protein levels of IL-18 | frequency of neutrophils, macrophages, myeloid DCs, lymphoid DCs, T cells, B cells ([3]; lungs, flow cytometry): did not alter frequency | reduction of release of progeny virus, TCID50 analysis of cell supernatants (SARS-CoV-2 [4]; Calu3, 100 nM and 1000 nM Mito-MES): > 2 logs | nucleocapsid protein expression, time-of-addition (SARS-CoV-2 [4]; Calu3, 1000 nM Mito-MES): inhibited nucleocapsid protein expression in Calu3 cells when added before infection (effect on viral entry) but also even when added 4 hours after infection | antiviral activity by immunofluorescence and PCR (SARS-CoV-2 [4]; Calu3, 10-1000 nM, methanesulfonate): much more potent in Calu3 cells compared to Vero E6 cells; also recorded: potent antiviral activity against SARS-CoV-2 in Calu3 cells at concentrations as low as 10 nM | Viral replication by flow cytometry at 48 hpi in Calu3 cells (SARS-CoV-2 [4]; DMF 10 μM, Mito-MES 100 nM, Mito-MES 100 nM+DMF 10 μM, […]): 2.4% | Viral replication by flow cytometry at 48 hpi in Calu3 cells (SARS-CoV-2 [4]; Mito-MES 1000 nM, Brusatol 250 nM, Mito-MES 1000 nM+Brusatol 250 nM): 2.9% | IC50 (SARS-CoV-2 [4]; Severe acute respiratory syndrome coronavirus 2, Calu-3, 48 h, read-out: IC50 (FIG. 1-i)): 20 nM | IC50 (SARS-CoV-2 [4]; Severe acute respiratory syndrome coronavirus 2, Calu-3, 72 h, read-out: IC50, % inhibition of viral replication (FIG. 5-c)): 30 nM | viral titers of infected cells vs vehicle control, TCID50-assay (SARS-CoV-2 [4]; […], 10 nM Mito-MES, 10 μM DMF, 100 nM 4F, alone or combined as labelled): reduced viral titers | lowest concentration that resulted in an observable antiviral effect (SARS-CoV-2 [4]; human lung epithelial cells): 10 nM | anti-MHV-A59 activity [5]: anti-MHV-A59 activity | secretion of IL-10, Luminex [6]: tended (p=0.09) to reduce the secretion of IL-10 | cytotoxicity, XTT cell cytotoxicity assay (Vero cells): no observed cytotoxicity | reduction in SARS-CoV-2 viral titers in the lungs relative to vehicle (SARS-CoV-2 [7]; 4 mg/kg i.p. from 24 hours before infection, once per day): ~2 log units | reduction in SARS-CoV-2 viral titers in the lungs relative to vehicle (SARS-CoV-2 [7]; 4 mg/kg, 8 hours after infection): 1.5 log units | SARS-CoV-2 N protein among lung cell subtypes, flow cytometry (SARS-CoV-2 [7]; 3 dpi): had anti-SARS-CoV-2 activity in EPCAM(+) lung epithelial cells | viral titers compared to controls (vehicle) (SARS-CoV-2 [7]; K18-hACE2 mice, 4 mg/kg per day intraperitoneally, 72 hpi): viral titers were lower | reduction of the replication of SARS-CoV-2 (SARS-CoV-2 [7]; K18-hACE2 mice, overall): at least 2 orders of magnitude
